Assay results from the METLIN SMRT retention time set (Domingo-Almenara et al. 2019).

Experiment: gradient 5% acetonitrile 3 min, to 50% in 2 min, to 85% in 15 min, held 3 min, 100 µL/min
Details: column: Zorbax Extend-C18 2.1 x 50 mm; eluents: water / acetonitrile, 0.1% formic acid
In short: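 Pure standards were analyzed in mixtures of ~100 molecules using HPLC coupled to a quadrupole time-of-flight mass spectrometer, in both positive and negative ionization mode. Separation used a Zorbax Extend-C18 column (2.1 × 50 mm, 1.8 μm) at 100 μL/min, with water and acetonitrile each containing 0.1% formic acid. Dead and dwell volumes were 40 μL and 900 μL, and data were collected over 3 months. Retention time was read from computationally picked adduct peaks, each inspected manually.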
Compound COc1cc(NC(=O)C2CC(=O)N(CCc3c[nH]c4ccc(C)cc34)C2)cc(OC)c1OC (centres undefined) has an RP-LC retention time of 753 s. For CCN1C(=O)c2cc(S(=O)(=O)Nc3cc(C)ccc3F)ccc2Oc2cccnc21, the RP-LC retention time was 1030 s. Cc1csc(-c2ccc(N3CCN(C(=O)c4ccncc4)CC3)nc2)n1 showed an RP-LC retention time of 632 s. Compound CCOC(=O)c1cccc(NC(=O)N2CCN(c3nc4ccccc4n3C)CC2)c1 has an RP-LC retention time of 644 s. For Cc1ccc(NC(=O)Cn2ncc3c(c2=O)N(CC2CC2)C(=O)CS3)c(C)c1, the RP-LC retention time was 782 s. Work on Cc1ccc(Nc2nc(N3CCN(CCO)CC3)nc3c2C(=O)CCC3)cc1 yielded an RP-LC retention time of 656 s. Work on CCOc1ccc(NS(=O)(=O)c2c(C)sc(C)c2-c2n[nH]c(C)c2C)cc1 yielded an RP-LC retention time of 1040 s. With CC(C)n1nnc2cc(C(=O)O)ccc21 the RP-LC retention time was 687 s. COc1ccc(C(=O)N2CCC3(C2)C(=O)N(C)c2ccc(OC)cc23)c(OC)c1 (centres undefined) gave an RP-LC retention time of 760 s. CCOc1cc(C2C(C(=O)OC(C)C)=C(C)N=C3SCCC(=O)N32)ccc1OC(C)=O (centres undefined) showed an RP-LC retention time of 908 s. For COc1ccc(Cl)cc1NC(=O)c1c(O)c2cccc3c2n(c1=O)CC3, the RP-LC retention time was 1330 s. Cc1ccc(CN2C[C@@H]3C(=O)N(Cc4ccc5c(c4)OCO5)C(=O)[C@@H]3C2)cc1 showed an RP-LC retention time of 760 s. For O=C(NC1CCN(c2cc(-c3ccc(Cl)cc3)[nH]n2)C1)c1ccc2nc[nH]c2c1 (centres undefined), the RP-LC retention time was 626 s. For Cc1occc1C(=O)Nc1nc(-c2ccc(C(C)(C)C)cc2)cs1, the RP-LC retention time was 1300 s. For CCn1c(C(=O)N2CCCC(C(=O)N3CCc4ccccc4C3)C2)cc2sccc21 (centres undefined), the RP-LC retention time was 966 s. Work on O=C(Cn1nc2c3cc(F)ccc3ncn2c1=O)Nc1ccc(F)c(Cl)c1 yielded an RP-LC retention time of 706 s. O=C(NCc1cccs1)c1ccc2nc(CCc3ccccc3)oc2c1 showed an RP-LC retention time of 979 s. CC(C)n1nccc1-c1nnc(NC(=O)C(C)(C)Oc2ccc(Cl)cc2)o1 showed an RP-LC retention time of 903 s. Work on COCCn1cc(CCNC(=O)Nc2ccc(Cl)cc2)c2cccnc21 yielded an RP-LC retention time of 760 s. With CCOC(=O)C1=C(C)NC2=C(C(=O)c3ccccc32)C1c1ccccc1OC (centres undefined) the RP-LC retention time was 950 s. With COc1ccc(NC(=O)N2CCCC2c2nc(-c3ccccc3OC)no2)cc1F (centres undefined) the RP-LC retention time was 834 s. Work on CC1CCN(C(=O)C2c3ccccc3CCN2CC(=O)NCc2ccccc2)CC1 (centres undefined) yielded an RP-LC retention time of 900 s. Work on CCn1nccc1-c1cccc(-c2noc(COc3ccc(Cl)cc3)n2)c1 yielded an RP-LC retention time of 1200 s. CCNC(=O)c1cc(C)nc2c(C)cccc12 gave an RP-LC retention time of 568 s. With COC(=O)c1[nH]c(C)c(C(=O)C(C)N(C(=O)c2ccccc2)C2CCCCC2)c1C (centres undefined) the RP-LC retention time was 941 s. CC(C)c1nnc2ccc(NC(=O)Nc3ccccc3)cn12 showed an RP-LC retention time of 712 s. With CCOc1cccc(CNC(=O)c2ccc3c(=O)n(Cc4ccccc4)c(N(CC)CC)nc3c2)c1 the RP-LC retention time was 1170 s. With O=C(c1cc(-c2ccccn2)n[nH]1)N1CCN(C(=O)C2CCCCC2)CC1 the RP-LC retention time was 659 s. In the case of Cc1cc(C)n(Cc2nc(-c3ccc(NC(=O)Cc4ccccc4C)cc3)oc2C)n1, the RP-LC retention time is reported as 978 s. Work on NC(CO)(CO)CCc1ccc(Sc2cccc(OCc3ccccc3)c2)cc1Cl yielded an RP-LC retention time of 837 s. In the case of Cc1c2cnn(CC(=O)NCCN(C)C)c(=O)c2c(C)n1Cc1ccccc1Cl, the RP-LC retention time is reported as 655 s. In the case of CNC(=O)N1Cc2ccccc2OC2(CCN(C(C)C)CC2)C1, the RP-LC retention time is reported as 592 s. Work on COc1ccc(OC)c(CNC(=O)Cc2csc3nc(-c4ccccc4)cn23)c1 yielded an RP-LC retention time of 779 s. CN1C(=O)Cc2ccccc2C1C(=O)N1CCN(c2ccc(Cl)cc2)CC1 (centres undefined) showed an RP-LC retention time of 854 s. Compound O=C(NCc1ccccc1Br)c1ccc(-c2cncnc2)nc1 has an RP-LC retention time of 748 s. For COc1cccc(-c2noc(C3CC(=O)N(c4ccc(F)cc4)C3)n2)c1OC (centres undefined), the RP-LC retention time was 885 s. O=C(NC1CCCCC1)N1CCC(c2nc(C3CCOCC3)no2)CC1 gave an RP-LC retention time of 733 s. With COCCNC(=O)NCCC1CCN(S(=O)(=O)c2ccc(C)cc2)CC1 the RP-LC retention time was 686 s. For Cc1ccc(N2CC(C(=O)Nc3ccc4c(c3)C(=O)N3CCCCC3CCO4)CC2=O)cc1 (centres undefined), the RP-LC retention time was 762 s. Work on CCOc1ccccc1C(=O)n1nc(C)c(S(=O)(=O)N2CCCCC2)c1C yielded an RP-LC retention time of 1160 s. Work on Cc1ccc(C)c(N2CCN(Cc3nc(-c4ccc(N5CCCCC5)nc4)no3)CC2)c1 yielded an RP-LC retention time of 1160 s. In the case of O=C(CN1CCC2(CC1)NC(=O)c1ccccc1N2)Nc1ccc(Cl)cc1, the RP-LC retention time is reported as 637 s. In the case of Cc1ccc(Nc2c(-c3ccc(Cl)cc3)nc3cnccn23)cc1Cl, the RP-LC retention time is reported as 1150 s. CCCCS(=O)(=O)c1cc2c(cc1NC(=O)Cc1ccc(C)cc1)n(C)c(=O)n2C gave an RP-LC retention time of 931 s. In the case of Cc1nc(C)c(-c2nnc(NC(=O)c3ccc(F)cc3F)o2)s1, the RP-LC retention time is reported as 663 s. With CCc1ccc(NC(=O)C2CC(=O)N(c3n[nH]c4cccc(F)c34)C2)cc1 (centres undefined) the RP-LC retention time was 847 s. CCC1CCCCN1C(=O)CN1CCCN(Cc2cc(C)ccc2C)S1(=O)=O (centres undefined) showed an RP-LC retention time of 1150 s. Compound O=C(NCc1ccccn1)C1CCN(c2cnn(Cc3ccccc3)c(=O)c2)CC1 has an RP-LC retention time of 615 s. For Cc1nc2c(n1C)CN(C(=O)Cc1c(F)cccc1Cl)CC2, the RP-LC retention time was 594 s. Compound CCOC(=O)c1noc2ncnc(Nc3ccc(OC)cc3)c12 has an RP-LC retention time of 717 s. With CC1CCCN(CC2CCN(S(=O)(=O)c3cccc(Cl)c3)CC2)C1 (centres undefined) the RP-LC retention time was 696 s. O=C(O)c1cc(-c2ccccn2)nc2ccc(Br)cc12 showed an RP-LC retention time of 889 s. With COc1ccc(-n2c(=O)c(C(=O)NCC3CC3)c(O)c3cccnc32)cc1 the RP-LC retention time was 1110 s. For C=CCN1CCN(C(=O)C2CCN(c3cc(Nc4ccc(C)cc4)ncn3)CC2)CC1, the RP-LC retention time was 572 s. With O=C(Cc1nnc(-c2ccc3ncccc3c2)o1)NCc1ccccc1 the RP-LC retention time was 672 s. Compound C=CCN1C(=O)COc2ccc(-c3nc(NC(=O)c4ccccc4Cl)sc3C)cc21 has an RP-LC retention time of 1010 s. With COC1C(=O)N(CC2CC2)C12CCN(C(=O)c1ccc(C)s1)CC2 (centres undefined) the RP-LC retention time was 566 s. For Cn1c(=O)n(C)c2cc(N3CCCCC3)c(NC(=O)NCc3ccc(F)cc3)cc21, the RP-LC retention time was 659 s. O=C(C1CCN(c2ccc(Sc3ccc(Cl)cc3)nn2)CC1)N1CCN(c2ncccn2)CC1 showed an RP-LC retention time of 801 s. With O=C(COc1ccccc1)N1CCC(CNS(=O)(=O)c2cccnc2)CC1 the RP-LC retention time was 658 s. CCOc1ccc(-c2nc(Cc3noc(-c4ccccc4OC)n3)c(C)o2)cc1 showed an RP-LC retention time of 1170 s. For O=C(Nc1nnc(-c2ccc3c(c2)CCCC3)o1)c1ccc([N+](=O)[O-])o1, the RP-LC retention time was 918 s. CCOC(=O)C(Cc1c(C)[nH]c2ccccc12)C(=O)OCC showed an RP-LC retention time of 1000 s. Compound O=c1c2ccccc2ncn1Cc1noc(-c2cccc(Br)c2)n1 has an RP-LC retention time of 914 s. CCCCOc1ccc(NC(=O)Nc2ccc3c(c2)CN(C(=O)CC)CC3)cc1 gave an RP-LC retention time of 861 s. For CCOc1ccc(-c2cc3c(=O)n(Cc4nc(-c5cccc(Br)c5)no4)ncn3n2)cc1, the RP-LC retention time was 1280 s. O=C1CCN(C(=O)C2CCN(C(=O)c3ccoc3)CC2)CCCCCCN1 gave an RP-LC retention time of 612 s. For CCOc1nc2ccccc2nc1N1CCCC(C(=O)Nc2c(Cl)cccc2Cl)C1 (centres undefined), the RP-LC retention time was 1290 s. With CCc1ccc(N2C(=O)CN(Cc3ccc(OC)cc3)[C@H]3CS(=O)(=O)C[C@H]32)cc1 the RP-LC retention time was 866 s. For Cc1ccc(Nc2c(-c3cccc(Cl)c3)nc3ccc(Cl)cn23)cc1, the RP-LC retention time was 1080 s. CCSc1nnc(-c2nn(C)c3c2CN(C(=O)c2ccc(F)cc2)CC3)n1C showed an RP-LC retention time of 750 s. For CCCC1c2nccn2CCCN1C(=O)c1ocnc1C (centres undefined), the RP-LC retention time was 558 s. Compound O=C(COc1ccc(F)cc1)N1CCC(c2noc(C3CC3)n2)C1 (centres undefined) has an RP-LC retention time of 791 s. Compound Cn1cccc1C(=O)C(=O)N1CCN(c2ccc(F)cc2)CC1 has an RP-LC retention time of 819 s. For Cc1cc(C)cc(NC(=O)NC2CCN(c3ccc(F)c(C)c3)C2=O)c1 (centres undefined), the RP-LC retention time was 874 s. Work on NC(=O)N1CCC(CC(=O)N2CCC([C@H]3c4ncc(Br)cc4CCc4cc(Cl)cc(Br)c43)CC2)CC1 yielded an RP-LC retention time of 1040 s. In the case of O=C(CSc1nccnc1Sc1ccccc1)N1CCN(c2ccccn2)CC1, the RP-LC retention time is reported as 688 s. For CCN1CCN(C(=O)CC2CCN(C(=O)c3[nH]c(C)c(C(=O)OC(C)C)c3C)CC2)CC1, the RP-LC retention time was 612 s. With COc1cccc(CNC2CCN(c3ccc(C(=O)NC4CC4)cn3)C2)c1OC (centres undefined) the RP-LC retention time was 562 s. Cc1ccc(NC(=O)Nc2c(-c3ccncc3)nc3ccccn23)cc1C gave an RP-LC retention time of 632 s. In the case of Cc1ccc(-c2csc(NC(=O)CCCc3nc(-c4ccccc4Cl)no3)n2)cc1, the RP-LC retention time is reported as 1180 s. With O=C(CC(c1ccccc1)c1ccccc1)Nc1cc(N2CCOCC2)ncn1 the RP-LC retention time was 752 s. With Cc1nn(C)cc1S(=O)(=O)N1CCN(C(=O)c2ccco2)CC1 the RP-LC retention time was 626 s. In the case of O=C(C1CCN(S(=O)(=O)c2cc(-c3noc(C4CCC4)n3)cs2)CC1)N1CCCC1, the RP-LC retention time is reported as 911 s. Work on O=C(Nc1cccnc1)C1CCCN(S(=O)(=O)c2cc(-c3noc(C4CCC4)n3)cs2)C1 (centres undefined) yielded an RP-LC retention time of 893 s. CCC(=O)N1CCCC1c1nc2ccccc2n1CC(=O)OC (centres undefined) showed an RP-LC retention time of 592 s. Work on CCOC(=O)c1[nH]c(C)c(CCC(=O)Nc2ccc3c(c2)OCCO3)c1C yielded an RP-LC retention time of 805 s. Compound COc1ncc(C(=O)NC(C)CCc2ccccc2)cn1 (centres undefined) has an RP-LC retention time of 797 s. CCOC(=O)Cc1ccc(NC(=O)N2CCc3cn(C)c4cccc(c34)C2)cc1 showed an RP-LC retention time of 749 s.
